In patent US10111434B2, “Binary fungicidal mixtures” (BAYER CROPSCIENCE AG, priority 2012, dated 2018):

Experiments:
Alternaria solani = experiment: Alternaria test (tomatoes)/preventive; format: in vivo; conditions: preventive spray, evaluated 3 days after inoculation
Method: Alternaria Test (Tomatoes)/Preventive
(§1) To produce a suitable preparation of active compound, 1 part by weight of active compound is mixed with the stated amounts of solvent and emulsifier, and the concentrate is diluted with water to the desired concentration.
(§2) To test for preventive activity, young plants are sprayed with the preparation of active compound at the stated rate of application. After the spray coating has dried on, the plants are inoculated with an aqueous spore suspension of Alternaria solani. The plants are then placed in an incubation cabinet at approximately 20° C. and a relative atmospheric humidity of 100%.
The test is evaluated 3 days after the inoculation. 0% means an efficacy which corresponds to that of the untreated control while an efficacy of 100% means that no disease is observed.

Phakopsora pachyrhizi = experiment: Phakopsora test (soybeans)/preventive; format: in vivo; conditions: preventive spray, evaluated 7 days after inoculation
Method: Phakopsora Test (Soybeans)/Preventive
as §1
as §2, with “the causal agent of soybean rust (Phakopsora pachyrhizi) and stay for 24 h without light” for “Alternaria solani. The plants are then placed”, “24°” for “20°”, “95%.” for “100%.”
The plants remain in the incubation cabinet at approximately 24° C. and a relative atmospheric humidity of approximately 80% and a day/night interval of 12 h.
The test is evaluated 7 days after the inoculation. 0% means an efficacy which corresponds to that of the untreated control, while an efficacy of 100% means that no disease is observed.

| Compound | Efficacy in % found (Alternaria solani; 25 ppm a.i.) | Efficacy in % found (Phakopsora pachyrhizi; 25 ppm a.i.) | Efficacy in % found (Alternaria solani; 2.5 ppm a.i.) | Efficacy in % found (Phakopsora pachyrhizi; 2.5 ppm a.i.) |
| --- | --- | --- | --- | --- |
| propineb [2.2] | 33% | 0% |  |  |
| CC1CC(C)(C)c2cccc(NC(=O)c3cn(C)nc3C(F)F)c21 (stereo not drawn) [(I-1), 3-(difluoromethyl)-1-methyl-N-(1,1,3-trimethyl-2,3-dihydro-1H-inden-4-yl)-1H-pyrazole-4-carboxamide] |  |  | 36% | 68% |
| Cn1c(=O)c2sc3c(=O)n(C)c(=O)c3sc2c1=O [2.1, 2,6-dimethyl-1H,5H-[1,4]dithiino[2,3-c:5,6-c′]dipyrrole-1,3,5,7(2H,6H)-tetrone] | 39% | 8% |  |  |
